Results as given in article PMC8509676, “Residual Helicity at the Active Site of the Histidine Phosphocarrier, HPr, Modulates Binding Affinity to Its Natural Partners” (International Journal of Molecular Sciences, 2021).
Read-outs that look alike come from different tables or passages of the source.

Key:
[1] = target: EIN^sc (Streptomyces coelicolor, UniProt Q9KZP1); assay: biochemical; assay type: binding
Experimental: (§1) Spectra were collected at 25 °C on a Cary spectrofluorometer (Agilent, Madrid, Spain), with a Peltier temperature controller. The samples were prepared the day before and left overnight at 5 °C. Before measurements, the samples were incubated for 1 h at 25 °C. A quartz cell with a 1 cm path length (Hellma, Kruibeke, Belgium) was used. In all the experiments, the slit widths were equal to 5 nm for both the excitation and emission lights. Protein samples were excited at either 280 or 295 nm. The experiments were performed between 300 and 400 nm. The signal was acquired for 1 s, and the increment of wavelength was set to 1 nm. Appropriate blank corrections were made in all spectra. For the binding experiments, 3 µM of either protein (Rsd^ec or EIN^sc) and 15 µM of the corresponding peptide were mixed. The experiments in aqueous solution were acquired in Tris buffer (50 mM, pH 7.0).
(§2) For the titration between either of the two proteins (Rsd^ec or EIN^sc) and the corresponding peptide, increasing amounts of the latter, in a concentration range of 0 to 30 µM, were added to a solution with a fixed concentration of each protein (3 µM). The experimental set-up was identical to that described above, including preparation of the samples the day before and their storage overnight at 5 °C. Before measurements, the samples were incubated for 1 h at 25 °C. The fluorescence of a blank solution containing only the corresponding peptide was subtracted for each data point. […] The Kd was determined by following the fluorescence at selected wavelengths and fitting experimental data to Equation (1). […] At all used concentrations, the fluorescence was corrected by the inner-filter effects.

[2] = Far-UV CD, helicity from molar ellipticity at 222 nm; assay type: physicochemical; settings: 5 °C; for [Θ]^222 (value in parentheses): 50 mM Tris pH 7.0; for Helicity (%): 50 mM Tris pH 7.0, from [Θ]^222 assuming −39,500 deg cm^2 dmol^−1 for a fully formed α-helix
Experimental: Spectra were collected on a Jasco J810 spectropolarimeter (Jasco, Tokyo, Japan) interfaced with a Peltier unit. Far-UV measurements were performed with samples placed in quartz cells with a 0.1 cm path length (Hellma, Kruibeke, Belgium), with a response time of 2 s, a band width of 1 nm, and a scan velocity of 50 nm/min. For all peptides, a wide range of concentrations (10–50 µM) was used to determine whether either the shape or the intensity of the spectra was concentration-dependent. None of those features changed in the concentration range explored. The experiments in aqueous solution were acquired at 5 °C in Tris buffer (50 mM, pH 7.0). Raw ellipticity was converted to molar ellipticity, [Θ], from which the fraction of helical populations was determined as previously described. For the experiments in the presence of each protein (repeated three times), the same concentration used in the fluorescence experiments was used, and the experimental set-up was the same as described above for the isolated peptides.

[3] = TFE titration followed by far-UV CD (disordered-helical two-state equilibrium); assay type: physicochemical; settings: for [TFE]1/2 / m: TFE titration by far-UV CD, 20 µM peptide, two-state fit, fitting errors; for percentage of helical population (in parentheses): from ∆G^water assuming a two-state conformational equilibrium; for ∆G^water: product of m- and [TFE]1/2 values, error propagation
Experimental: For experiments in the presence of TFE, the same set of experimental parameters was used. Cosolvent concentrations were indicated in percentage of volume (%). […] The peptide concentration for these experiments was 20 µM.

[4] = system: Staphylococcus aureus CECT59; assay type: cell-based; settings: S. aureus CECT59, two-fold broth microdilution (CLSI), MH broth, 24 h, 37 °C; triplicate (sd = 0); highest concentration tested 400 µM
Experimental: The CECT59 strain of the Gram-positive bacteria Staphylococcus aureus from the Spanish Type Culture Collection (Colección Española de Cultivos Tipo, CECT, Universitat de Valencia, Spain) was used for determining its sensitivity to the HPr peptides studied in this work. The MIC for each peptide was determined by the two-fold broth microdilution method according to the Clinical and Laboratory Standards Institute (CLSI) guidelines, with some modifications as previously described. For this testing procedure, a bacteria colony previously grown in MH agar plates was isolated and incubated in MH broth at 37 °C overnight to prepare the bacteria inoculum to be used in each assay. Then, the bacteria suspensions were adjusted to a 100× dilution of an 0.5 McFarland turbidity standard in MH broth and incubated with different concentrations of each peptide in round-bottom 96-well polystyrene plates (Deltalab S.L., Rubí, Spain) (50 μL/well) for 24 h at 37 °C. The peptide concentrations employed comprised two-fold dilutions starting at either 120, 160, or 400 µM, depending on the experiment. […] All assays were performed in triplicate.

[5] = target: T1, Rsd^ec (Escherichia coli, UniProt P0AFX4); assay: Isothermal titration calorimetry (ITC), peptide/Rsd^ec binding; settings: for ΔH, Rsd^ec: 50 mM Tris pH 7.0
T1 construct: His-tag; made in house; host or cells: E. coli C41
Experimental: (§3) The experimental set-up and data processing of ITC experiments has been described previously. Rsd^ec or EIN^sc (at 10–20 µM) were injected into the cell, and the peptides in the syringe (100–200 µM) in 50 mM of Tris buffer, pH 7.0. The temperature for all the experiments was 25 °C. Typically, each calorimetric titration consisted of performing 19 injections with 2 μL volume, with a time spacing of 150 s, while stirring at 750 rpm in an Auto-iTC200 high-sensitivity microcalorimeter (MicroCal, Malvern-Panalytical, Malvern, UK). The results were analysed by applying a model that considered a single binding site (assuming a 1:1 stoichiometry) for the peptide/EIN^sc or peptide/Rsd^ec interaction using a nonlinear least-squares regression analysis in Origin 7.0 (OriginLab, Northampton, MA, USA) with user-defined fitting routines.

[6] = Translational diffusion NMR (DOSY); assay type: physicochemical; settings: for D (translational diffusion coefficient): DOSY, 10 °C, 100% D2O, 70-120 µM peptide, fitting errors, repeated twice; for Rh (in parentheses, from DOSY): from comparison with the Rh of dioxane (2.12 Å)
Experimental: (b) Translational diffusion NMR (DOSY): Peptide concentrations were the same as those used in the 1D-^1H-NMR spectra. Translational self-diffusion measurements were performed with the pulsed-gradient spin-echo sequence in the presence of 100% D2O. The following relationship existed between the translational self-diffusion coefficient, D, and the delays used during experiment acquisition:(2) I/I0=−exp(DγH2δ^2G^2(Δ−δ/3−τ/2)) where I is the peak intensity of a particular resonance (or a group of them) at any gradient strength; I0 is the maximum peak intensity of the same resonance(s) at the smallest gradient strength (that is, at 2% of the total power of the gradient coil); D is the translational self-diffusion constant (in cm^2 s^−1); δ is the duration (in s) of the gradient; G is the gradient strength (in T cm^−1); ∆ is the time (in s) between the gradients; γH is the gyromagnetic constant of the proton (in rad s^−1 T^−1); and τ is the recovery delay between the bipolar gradients (100 µs in our experiments). The gradient strength (G) was varied in 16 lineal steps, between 2 and 95% of the total power of the gradient coil of the probe. The gradient strength was calibrated by using the value of D for the residual proton water line in a sample containing 100% D2O placed in a 5 mm tube [42]. Data were plotted as I/I0 versus G^2, and the exponential factor of the curve was:(3) DγH2δ^2(Δ−δ/3−τ/2) from which D can be obtained. The duration of the gradient (δ) was 2.25 ms, and the time between the two gradients (∆) was set to 200 ms. The signal from the methyl groups between 1.1 and 0.70 ppm were used for integration of the intensity. A final concentration of 1% of dioxane was added to each peptide; the hydrodynamic radius, Rh, of each peptide was obtained for comparison by assuming that the Rh of dioxane was 2.12 Å [42]. The DOSY experiment was repeated twice with fresh samples for each peptide.

[7] = target: T1, Rsd^ec; assay: Fluorescence titration, peptide/Rsd^ec binding
Experimental: as §1, §2

[8] = target: EIN^sc (N-terminal domain of EI^sc) (Streptomyces coelicolor, UniProt Q9KZP1); assay: biochemical; assay type: binding
Chain of EIN^sc (N-terminal domain of EI^sc) (Q9KZP1 1-230): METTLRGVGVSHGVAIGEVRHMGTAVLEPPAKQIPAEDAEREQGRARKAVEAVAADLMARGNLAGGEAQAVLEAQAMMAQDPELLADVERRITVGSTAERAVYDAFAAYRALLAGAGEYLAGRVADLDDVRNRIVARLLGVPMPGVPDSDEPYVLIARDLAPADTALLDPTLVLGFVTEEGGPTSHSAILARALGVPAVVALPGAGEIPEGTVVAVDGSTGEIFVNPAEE
Experimental: as §3

[9] = target: Rsd (Escherichia coli) (UniProt C5A0T6); assay: ITC; settings: cited from earlier work
[10] = target: EI (Streptomyces coelicolor) (UniProt Q9KZP1); assay: ITC; settings: cited from earlier work
Chain of EI (Streptomyces coelicolor) (Q9KZP1 whole entry): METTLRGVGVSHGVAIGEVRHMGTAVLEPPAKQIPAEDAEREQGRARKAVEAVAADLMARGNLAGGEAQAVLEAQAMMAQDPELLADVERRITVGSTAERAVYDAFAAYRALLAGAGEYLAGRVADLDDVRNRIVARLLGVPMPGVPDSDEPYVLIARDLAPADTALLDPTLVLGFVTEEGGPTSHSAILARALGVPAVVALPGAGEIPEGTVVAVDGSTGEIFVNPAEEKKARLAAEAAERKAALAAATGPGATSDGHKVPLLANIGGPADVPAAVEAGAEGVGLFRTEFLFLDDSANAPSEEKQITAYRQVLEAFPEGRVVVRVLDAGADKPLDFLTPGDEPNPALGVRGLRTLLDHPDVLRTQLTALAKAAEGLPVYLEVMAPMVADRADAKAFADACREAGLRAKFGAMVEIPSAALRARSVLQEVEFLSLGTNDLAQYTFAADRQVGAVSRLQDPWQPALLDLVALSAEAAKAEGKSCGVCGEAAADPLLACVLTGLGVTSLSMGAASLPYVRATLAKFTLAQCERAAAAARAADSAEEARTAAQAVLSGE

[11] = target: EI EIN (Streptomyces coelicolor) (UniProt Q9KZP1); assay: ITC; settings: cited from earlier work
Chain of EI EIN (Streptomyces coelicolor) (Q9KZP1 1-250): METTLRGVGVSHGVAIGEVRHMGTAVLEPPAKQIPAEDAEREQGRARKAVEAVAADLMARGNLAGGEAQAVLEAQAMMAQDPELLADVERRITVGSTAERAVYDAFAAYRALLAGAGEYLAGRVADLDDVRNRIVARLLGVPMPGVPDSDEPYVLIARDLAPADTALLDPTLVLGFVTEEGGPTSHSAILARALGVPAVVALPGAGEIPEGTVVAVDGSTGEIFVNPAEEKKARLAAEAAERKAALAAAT

[12] = target: T2, Regulator of sigma D from Escherichia coli (Rsd^ec) (E. coli, UniProt P0AFX4 1-158); assay: other fluorescence titration; peptide 0–30 µM added to 3 µM Rsd^ec or EIN^sc; 50 mM Tris, pH 7.0, 25 °C; samples left overnight at 5 °C; blank of peptide subtracted; settings: both partners purified
T2 construct: Rsd (regulator of sigma D), anti-sigma factor of sigma 70, E. coli; 158-residue-long protein; called 'intact Rsd' in the abstract and 'wild-type Rsd vector' in the methods; Vector was a gift from Ann Hochschild; source: E. coli C41, purified as described [24,50]
T2 sequence (looked up): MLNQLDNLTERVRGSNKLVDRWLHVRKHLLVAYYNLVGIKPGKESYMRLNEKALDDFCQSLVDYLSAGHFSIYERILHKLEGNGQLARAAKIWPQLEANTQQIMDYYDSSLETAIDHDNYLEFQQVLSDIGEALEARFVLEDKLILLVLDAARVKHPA

[13] = target: T2, Regulator of sigma D from Escherichia …; assay: ITC; Rsd^ec or EIN^sc (10–20 µM) in the cell, peptide (100–200 µM) in the syringe; 50 mM Tris, pH 7.0, 25 °C; single binding-site model, 1:1 stoichiometry assumed; settings: both partners purified
[14] = target: Rsd; design: method as in PMID 24324139; settings: SPR; read-out: dissociation constant, Rsd-HPr in E. coli; cited from earlier work

Chain of EIN^sc (Q9KZP1 1-230): as the sequence (Q9KZP1 1-230) above

Ac-GWAEGLHARAASAAARAATATG-NH2 [P18A/I21A/F22A/V23A]
Kd ([1]; fluorescence titration, 3 µM protein, 0-30 µM peptide, 25 °C, 50 mM Tris pH 7.0, uncertainties are fitting errors, repeated three times, read-out: Kd, EIN^sc (fluorescence titration, value in parentheses)): 11 µM
[Θ]^222 (value in parentheses) [2]: −7305.73 deg cm^2 dmol^−1
Helicity (%) [2]: 18.4%
[TFE]1/2 [3]: 21 ± 1 % (v/v)
m [3]: 157 ± 26 cal/mol (% (v/v))
percentage of helical population (in parentheses) [3]: 0.24%
∆G^water [3]: 3.3 ± 0.6 kcal/mol
MIC [4]: > 400 µM
ΔH, Rsd^ec ([5]; ITC, 25 °C): 4.3 ± 0.5 kcal/mol
Kd ([5]; ITC, 25 °C, 50 mM Tris pH 7.0, single binding-site model, read-out: Kd, Rsd^ec (ITC)): 5 ± 0.7 µM
D (translational diffusion coefficient) [6]: 1.7 ± 0.1 cm^2 s^−1 × 10^6
Rh (in parentheses, from DOSY) [6]: 12 ± 2 Å
Kd ([7]; fluorescence titration, 3 µM protein, 0-30 µM peptide, 25 °C, 50 mM Tris pH 7.0, uncertainties are fitting errors, repeated three times, read-out: Kd, Rsd^ec (fluorescence titration, value in parentheses) (converted)): 10 µM

Ac-GWAEGLHARPASAFVRAATATG-NH2 [Peptide I21A]
[Θ]^222 (value in parentheses) [2]: −681.95 deg cm^2 dmol^−1
Helicity (%) [2]: 1.7%
[TFE]1/2 [3]: 23.8 ± 0.4 % (v/v)
m [3]: 197 ± 20 cal/mol (% (v/v))
percentage of helical population (in parentheses) [3]: 0.02%
∆G^water [3]: 4.7 ± 0.5 kcal/mol
MIC [4]: > 400 µM
Kd [5]: 2.6 ± 0.4 µM
ΔH, Rsd^ec ([5]; ITC, 25 °C): 1.0 ± 0.4 kcal/mol
D (translational diffusion coefficient) [6]: 1.9 ± 0.1 cm^2 s^−1 × 10^6
Rh (in parentheses, from DOSY) [6]: 11 ± 1 Å
Kd [7]: 8 µM

Ac-GWAEGLHARPASIFARAATATG-NH2 [Peptide V23A]
Kd [8]: 9.1 ± 0.9 µM
ΔH, EIN^sc ([8]; ITC, 25 °C, 50 mM Tris pH 7.0): -6.6 ± 0.5 kcal/mol
Kd [1]: 9 µM
[Θ]^222 (value in parentheses) [2]: −988.51 deg cm^2 dmol^−1
Helicity (%) [2]: 2.5%
[TFE]1/2 [3]: 22.7 ± 0.3 % (v/v)
m [3]: 217 ± 23 cal/mol (% (v/v))
percentage of helical population (in parentheses) [3]: 0.01%
∆G^water [3]: 4.9 ± 0.5 kcal/mol
MIC [4]: > 400 µM
ΔH, Rsd^ec ([5]; ITC, 25 °C): -0.8 ± 0.5 kcal/mol
D (translational diffusion coefficient) [6]: 2.0 ± 0.1 cm^2 s^−1 × 10^6
Rh (in parentheses, from DOSY) [6]: 11 ± 1 Å

HPr 9-30 (from UniProt O50515)
Kd [9]: 2.5 µM
Kd [10]: 230 µM

HPr (from UniProt O50515)
Kd [9]: 2 µM
Kd [11]: 12 µM

B1: HPr^9–30 F22A peptide (peptide)
peptide: Ac-GWAEGLHARPASIAVRAATATG-NH2
notes: HPr of Streptomyces coelicolor, residues 9-30, with F22A; source: synthetic peptide, bought: NZYTech (purity >95%)
Kd [12]: 11 µM
Kd [13]: 5.9 ± 0.7 µM
dH [13]: 1.1 ± 0.5 kcal/mol

B2: HPr^sc: intact histidine phosphocarrier protein HPr from Streptomyces coelicolor (O50515) (protein, UniProt O50515 2-93, looked up)
Phosphocarrier protein HPr: AERRVNVGWAEGLHARPASIFVRAATATGVPVTIAKADGSPVNAASMLAVLGLGAQGGEEIVLASDAEGAEAALERLAKLVAEGLEELPETV
Kd [14]: 0.00887 µM
